According to patent publication US20070207160A1, “Apoptosis inhibitors” (priority 1994, published 2007):

Experiments:
Format in all cases: cell-based
[1] = system: L 29-APO-1 cells; assay: Inhibition of apoptosis induced by an anti-APO-1 antibody using DCI (MTT assay); conditions: DCI 45 μM or 15 μM, 1 hour before anti-APO-1 antibody for 7 hours, FIG. 2B
Experimental: FIG. 2B depicts the inhibition of apoptosis by DCI. L 29-APO-1 cells were incubated with DCI (●45μM, ▴15 μM) or without DCI (◯). After one hour, anti-APO-1 antibody was added in the amounts indicated in FIG. 2B and allowed to remain on the cells for 7 hours. The percentage cell death was determined by formazan production from diphenyltetrazolium salt (MTT assay).

[2] = system: L 29-APO-1 cells and SKW 6.4 cells; assay: Inhibition of apoptosis induced by an anti-APO-1 antibody using YVAD-CHO (DNA fragmentation, Hoechst dye 33342, FACS); conditions: permeabilized L 29-APO-1 and SKW 6.4 cells, YVAD-CHO 30 minutes, then anti-APO-1 antibodies 1 μg/ml for 60 minutes; FIG. 2C
Experimental: FIG. 2C depicts the inhibition of apoptosis by YVAD-CHO.
L 29-APO-1 cells (◯) and SKW 6.4 cells (●) were permeabilized by a short hypotonic shock and incubated with the indicated concentrations of YVAD-CHO indicated in FIG. 2C for 30 minutes. The cells were incubated with anti-APO-1 antibodies (1 μg/ml) for 60 minutes. Apoptosis was determined by measuring a DNA fragmentation using the Hoechst dye 33342 (Molecular Probes Eugene, Oreg.). Data of specific cell death (cell death in the presence of an anti-APO-1 antibody minus cell death in the absence of such an antibody) was obtained from triple measurements by using an FACS Vantage flow cytometer. Spontaneous cell death in the absence of an anti-APO-1 antibody was less than 7%.

[3] = system: SKW 6.4 cells; assay: Inhibition of apoptosis induced in SKW 6.4 cells by anti-APO-1 antibody; conditions: SKW 6.4 cells incubated with anti-APO-1 antibody (20 ng/ml) and varying amounts of inhibitor for 24 hours, FIG. 1
Experimental: FIG. 1 depicts the inhibition of apoptosis induced in SKW6.4 cells by means of anti-APO-1 antibodies (20 ng/ml) by human APO-1-Ig and anti-APO-1F(ab′)2, respectively.
SKW 6.4 cells (Oehm et al, supra) are apoptosis-positive cells, i.e. apoptosis can be induced therein, e.g. by binding an anti-APO-1 antibody.
SKW 6.4 cells were incubated with an anti-APO-1 antibody in the presence of varying amounts of the fusion protein of Example 1 (human APO-1-Ig) and of anti-APO-1-F(ab)2 (see above), respectively, for 24 hours. The inhibition of apoptosis was determined. See, FIG. 1.

## O=c1oc(Cl)c(Cl)c2ccccc12 [DCI, 3,4-dichloroisocoumarin]
[1]
  inhibition of apoptosis induced by an anti-APO-1 antibody (percentage cell death, MTT assay): can be inhibited

## YVAD-CHO
[2]
  inhibition of apoptosis induced by an anti-APO-1 antibody (specific cell death, DNA fragmentation): can be inhibited

B1: fused portion of Example 1: Fusion protein in which an extracellular APO-1 domain is fused via an antibody-hinge region to an Fc portion of a human antibody (protein)
chain: QVTDINSKGLELRKTVTTVETQNLEGLHHDGQFCHKPCPPGERKARDCTVNGDEPDCVPCQEGKEYTDKAHFSSKCRRCRLCDEGHGLEVEINCTRTQNTKCRCKPNFFCNSTVCEHCDPCTKCEHGIIKECTLTSNTKCKEEGSRSN
modifications: left off: a dimerising Fc or GST
notes: Fusion protein in which an extracellular APO-1 domain is fused via an antibody-hinge region to an Fc portion of a human antibody
[3]
  inhibition of apoptosis: strong apoptosis-inhibiting effect
[3]; listed as fusion protein
  inhibition of apoptosis: especially strong
